For one assay, the target named is T1, human eIF4E protein (Homo sapiens, UniProt P06730).
T1 construct: purchased Novus NBP-45314
Put plainly: Biochemical competitive binding assay (TR-FRET competition, EDA-m7GDP-ATTO-647N probe). To be noted: read-out: hEIF4E TR-FRET IC50. Put shortly:
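His-tagged human eIF4E (4 nM) was preincubated with Eu-anti-His antibody (2.5 nM) and added to compound (11-point, 4-fold dilutions) for 15 min. Then 5 nM EDA-m7GDP-ATTO-647N was added for 15 min, in HEPES pH 7.5, 100 mM KCl. The 665/620 TR-FRET ratio was normalized to controls, and IC50 was taken from 4-parameter fits.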

For assay [1], the system named is COLO 205 colorectal tumor cells. Kind of assay: Tumor cell viability inhibition assay (CellTiter-Glo 2.0, 72 hours). The class given is cell-based. Conditions: COLO 205 cell viability. The method, boiled down: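 COLO 205 cells (1500/well, RPMI-1640 + 10% FBS) exposed for 72 h to an 11-point, 4-fold dilution series; cellular ATP read by CellTiter-Glo 2.0 luminescence. Data normalized to DMSO and maximum-inhibition controls; IC50 from 4-parameter curve fit.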
Background: Cellular ATP, detected with luciferase, serves as a proxy for viable cell number.

Molecules are shown by their SMILES. Bounds are passed on as bounds.

T1 sequence (P06730 whole entry): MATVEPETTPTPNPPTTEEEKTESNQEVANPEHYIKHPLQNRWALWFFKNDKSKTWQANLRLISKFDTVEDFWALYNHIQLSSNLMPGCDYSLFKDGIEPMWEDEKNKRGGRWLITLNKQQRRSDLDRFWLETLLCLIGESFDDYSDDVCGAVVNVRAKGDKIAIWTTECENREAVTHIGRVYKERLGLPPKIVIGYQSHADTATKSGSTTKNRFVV

As usually defined, the IC50 is the concentration that inhibits the measured activity by half. With `Cc1cc(-c2cc(Cl)ccc2OCCn2c(C)nc3c(c2=O)C[C@H](N2CCC(c4ccc(F)cc4F)CC2)CC3)c2scc(C(=O)O)c2n1` (single isomer, unassigned) [Compound 418], the IC50 at human eIF4E protein is under 0.1 µM; in assay [1] (Homo sapiens, COLO 205, 72 h), under 5 µM.
For `Cc1cc(-c2cc(Cl)ccc2OCCn2c(C)nc3c(c2=O)C[C@@H](N2CCC(c4ccc(F)cc4F)CC2)CC3)c2scc(C(=O)O)c2n1` (single isomer, unassigned) [Compound 419] the same measures were under 0.1 µM and under 5 µM.
For `Cc1cc(-c2cc(Cl)ccc2OCCn2c(C)nc3c(c2=O)C[C@H](N2CCC4(CCCO4)CC2)CC3)c2scc(C(=O)O)c2n1` (single isomer, unassigned) [Compound 420] the same measures were under 0.1 µM and 5 to 20 µM.
As to `Cc1cc(-c2cc(Cl)ccc2OCCn2c(C)nc3c(c2=O)C[C@@H](N2CCC4(CCCO4)CC2)CC3)c2scc(C(=O)O)c2n1` (single isomer, unassigned) [Compound 421], the IC50 at human eIF4E protein is under 0.1 µM; in assay [1] (Homo sapiens, COLO 205, 72 h) it was under 5 µM.
For `Cc1cc(-c2cc(Cl)ccc2OCCn2c(C)nc3c(c2=O)C[C@H](N2CCC(n4ccnn4)CC2)CC3)c2scc(C(=O)O)c2n1` (single isomer, unassigned) [Compound 422] the same measures were under 0.1 µM and 5 to 20 µM.
For `Cc1cc(-c2cc(Cl)ccc2OCCn2c(C)nc3c(c2=O)C[C@@H](N2CCC(n4ccnn4)CC2)CC3)c2scc(C(=O)O)c2n1` (single isomer, unassigned) [Compound 423] the same measures were under 0.1 µM and 5 to 20 µM.
On the same counts, the results for `Cc1cc(-c2cc(Cl)ccc2OCCn2c(C)nc3c(c2=O)C[C@H](N2CCC4(CC2)COCCO4)CC3)c2scc(C(=O)O)c2n1` (single isomer, unassigned) [Compound 424] are under 0.1 µM and under 5 µM.
Regarding `Cc1cc(-c2cc(Cl)ccc2OCCn2c(C)nc3c(c2=O)C[C@@H](N2CCC4(CC2)COCCO4)CC3)c2scc(C(=O)O)c2n1` (single isomer, unassigned) [Compound 425], the IC50 is under 0.1 µM on human eIF4E protein and 5 to 20 µM in assay [1] (Homo sapiens, COLO 205, 72 h).
`Cc1cc(-c2cc(Cl)ccc2OCCn2c(C)nc3c(c2=O)C[C@H](N2CCC(c4cnn(C)c4)CC2)CC3)c2scc(C(=O)O)c2n1` (single isomer, unassigned) [Compound 426]: the IC50 on human eIF4E protein is under 0.1 µM; in assay [1] (Homo sapiens, COLO 205, 72 h), 5 to 20 µM.
`Cc1cc(-c2cc(Cl)ccc2OCCn2c(C)nc3c(c2=O)C[C@@H](N2CCC(c4cnn(C)c4)CC2)CC3)c2scc(C(=O)O)c2n1` (single isomer, unassigned) [Compound 427]: the IC50 was under 0.1 µM on human eIF4E protein and under 5 µM in assay [1] (Homo sapiens, COLO 205, 72 h).
On to `Cc1csc(C2CCN([C@H]3CCc4nc(C)n(CCOc5ccc(Cl)cc5-c5cc(C)nc6c(C(=O)O)csc56)c(=O)c4C3)CC2)n1` (single isomer, unassigned) [Compound 428], for which the IC50 was under 0.1 µM at human eIF4E protein and under 5 µM in assay [1] (Homo sapiens, COLO 205, 72 h).
In the case of `Cc1csc(C2CCN([C@@H]3CCc4nc(C)n(CCOc5ccc(Cl)cc5-c5cc(C)nc6c(C(=O)O)csc56)c(=O)c4C3)CC2)n1` (single isomer, unassigned) [Compound 429], the IC50 on human eIF4E protein was under 0.1 µM; in assay [1] (Homo sapiens, COLO 205, 72 h), under 5 µM.
For `Cc1cc(-c2cc(Cl)ccc2OCCn2c(C)nc3c(c2=O)C[C@H](N2CCC4(CC2)NC(=O)NC4=O)CC3)c2scc(C(=O)O)c2n1` (single isomer, unassigned) [Compound 430] the same measures were under 0.1 µM and under 5 µM.
As for `Cc1cc(-c2cc(Cl)ccc2OCCn2c(C)nc3c(c2=O)C[C@@H](N2CCC4(CC2)NC(=O)NC4=O)CC3)c2scc(C(=O)O)c2n1` (single isomer, unassigned) [Compound 431], the IC50 was under 0.1 µM at human eIF4E protein and under 5 µM in assay [1] (Homo sapiens, COLO 205, 72 h).
On the same counts, the results for `Cc1cc(-c2cc(Cl)ccc2OCCn2c(C)nc3c(c2=O)CC(N2CCC(C(F)(F)F)CC2)CC3)c2scc(C(=O)NS(C)(=O)=O)c2n1` (single isomer, unassigned) [Compound 432] are under 0.1 µM and under 5 µM.
On to `Cc1cc(-c2cc(Cl)ccc2OCCn2c(C)nc3c(c2=O)CC(N2CCC(C(F)(F)F)CC2)CC3)c2scc(C(=O)NS(C)(=O)=O)c2n1` (single isomer, unassigned) [Compound 433], for which the IC50 at human eIF4E protein was under 0.1 µM; in assay [1], under 5 µM.
Turning to `Cc1cc(-c2cc(Cl)ccc2OCCn2c(C)nc3c(c2=O)C[C@H](N2CCC(O)CC2)CC3)c2scc(C(=O)O)c2n1` (single isomer, unassigned) [Compound 434], the IC50 is under 0.1 µM at human eIF4E protein and under 5 µM in assay [1] (Homo sapiens, COLO 205, 72 h).
On the same counts, the results for `Cc1cc(-c2cc(Cl)ccc2OCCn2c(C)nc3c(c2=O)C[C@@H](N2CCC(O)CC2)CC3)c2scc(C(=O)O)c2n1` (single isomer, unassigned) [Compound 435] are under 0.1 µM and under 5 µM.
On the same counts, the results for `Cc1cc(-c2cc(Cl)ccc2OCCn2c(C)nc3c(c2=O)C[C@H](N2CCCC[C@@H]2C)CC3)c2scc(C(=O)O)c2n1` (single isomer, unassigned) [Compound 436] are under 0.1 µM and under 5 µM.
For `Cc1cc(-c2cc(Cl)ccc2OCCn2c(C)nc3c(c2=O)C[C@@H](N2CCCC[C@H]2C)CC3)c2scc(C(=O)O)c2n1` (single isomer, unassigned) [Compound 437] the same measures were under 0.1 µM and 5 to 20 µM.
For the molecule `Cc1cc(-c2cc(Cl)ccc2OCCn2c(C)nc3c(c2=O)C[C@H](N2CCC[C@]4(C2)CC4(F)F)CC3(C)C)c2scc(C(=O)O)c2n1` (single isomer, unassigned) [Compound 438], the IC50 on human eIF4E protein is under 0.1 µM; in assay [1] (Homo sapiens, COLO 205, 72 h) it was under 5 µM.
On to `Cc1cc(-c2cc(Cl)ccc2OCCn2c(C)nc3c(c2=O)C[C@H](N2CCC[C@@]4(C2)CC4(F)F)CC3(C)C)c2scc(C(=O)O)c2n1` (single isomer, unassigned) [Compound 439], for which the IC50 on human eIF4E protein is under 0.1 µM; in assay [1] (Homo sapiens, COLO 205, 72 h), under 5 µM.
Regarding `Cc1cc(-c2cc(Cl)ccc2OCCn2c(C)nc3c(c2=O)C[C@@H](N2CCC[C@]4(C2)CC4(F)F)CC3(C)C)c2scc(C(=O)O)c2n1` (single isomer, unassigned) [Compound 440], the IC50 at human eIF4E protein is under 0.1 µM; in assay [1] (Homo sapiens, COLO 205, 72 h), 5 to 20 µM.
For `Cc1cc(-c2cc(Cl)ccc2OCCn2c(C)nc3c(c2=O)C[C@@H](N2CCC[C@@]4(C2)CC4(F)F)CC3(C)C)c2scc(C(=O)O)c2n1` (single isomer, unassigned) [Compound 441] the same measures were under 0.1 µM and 5 to 20 µM.
For `Cc1cc(-c2cc(Cl)ccc2OCCn2c(C)nc3c(c2=O)CC(N2CCC(OC(F)(F)F)CC2)CC3(C)C)c2scc(C(=O)O)c2n1` (single isomer, unassigned) [Compound 442, 7-(5-chloro-2-(2-(2,8,8-trimethyl-4-oxo-6-(4-(trifluoromethoxy)piperidin-1-yl)-5,6,7,8-tetrahydroquinazolin-3(4H)-yl)ethoxy)phenyl)-5-methylthieno[3,2-b]pyridine-3-carboxylic acid] the same measures were under 0.1 µM and 5 to 20 µM.
As to `Cc1cc(-c2cc(Cl)ccc2OCCn2c(C)nc3c(c2=O)CC(N2CCC(OC(F)(F)F)CC2)CC3(C)C)c2scc(C(=O)O)c2n1` (single isomer, unassigned) [Compound 443, 7-(5-chloro-2-(2-(2,8,8-trimethyl-4-oxo-6-(4-(trifluoromethoxy)piperidin-1-yl)-5,6,7,8-tetrahydroquinazolin-3(4H)-yl)ethoxy)phenyl)-5-methylthieno[3,2-b]pyridine-3-carboxylic acid], the IC50 at human eIF4E protein was under 0.1 µM; in assay [1], under 5 µM.
As for `Cc1cc(-c2cc(Cl)ccc2OCCn2c(C)nc3c(c2=O)C[C@H](N2CCC(c4ncccc4F)CC2)CC3)c2scc(C(=O)O)c2n1` (single isomer, unassigned) [Compound 444], the IC50 at human eIF4E protein is under 0.1 µM; in assay [1] (Homo sapiens, COLO 205, 72 h) it was under 5 µM.
Regarding `Cc1cc(-c2cc(Cl)ccc2OCCn2c(C)nc3c(c2=O)C[C@@H](N2CCC(c4ncccc4F)CC2)CC3)c2scc(C(=O)O)c2n1` (single isomer, unassigned) [Compound 445], the IC50 at human eIF4E protein was under 0.1 µM; in assay [1] (Homo sapiens, COLO 205, 72 h) it was under 5 µM.
For `Cc1cc(-c2cc(Cl)ccc2OCCn2c(C)nc3c(c2=O)C[C@@H](N2CCC[C@@H](c4ccn(C)n4)C2)CC3)c2scc(C(=O)O)c2n1` (single isomer, unassigned) [Compound 446], the IC50 on human eIF4E protein is under 0.1 µM; in assay [1] (Homo sapiens, COLO 205, 72 h), over 20 µM.
In the case of `Cc1cc(-c2cc(Cl)ccc2OCCn2c(C)nc3c(c2=O)C[C@H](N2CCC[C@@H](c4ccn(C)n4)C2)CC3)c2scc(C(=O)O)c2n1` (single isomer, unassigned) [Compound 447], the IC50 is under 0.1 µM at human eIF4E protein and 5 to 20 µM in assay [1] (Homo sapiens, COLO 205, 72 h).
On the same counts, the results for `Cc1cc(-c2cc(Cl)ccc2OCCn2c(C)nc3c(c2=O)C[C@@H](N2CCC[C@H](c4ccn(C)n4)C2)CC3)c2scc(C(=O)O)c2n1` (single isomer, unassigned) [Compound 448] are under 0.1 µM and under 5 µM.
On the same counts, the results for `Cc1cc(-c2cc(Cl)ccc2OCCn2c(C)nc3c(c2=O)C[C@@H](N2CCC(c4noc5ccc(F)cc45)CC2)CC3)c2scc(C(=O)O)c2n1` (single isomer, unassigned) [Compound 449] are under 0.1 µM and under 5 µM.
Regarding `COC1(C(F)(F)F)CCN([C@@H]2CCc3nc(C)n(CCOc4ccc(Cl)cc4-c4cc(C)nc5c(C(=O)O)csc45)c(=O)c3C2)CC1` (single isomer, unassigned) [Compound 450], the IC50 on human eIF4E protein was under 0.1 µM; in assay [1] (Homo sapiens, COLO 205, 72 h), under 5 µM.

The values above are taken from patent US20240246918A1, “COMPOUNDS AND COMPOSITIONS AS EIF4E INHIBITORS AND THE USES THEREOF” (Ribometrix, Inc., priority 2022, published 2024).
